Laboratory results taken from PubChem BioAssay AID2060333 (Molecular Pharmacology Branch, DTP, NCI, 2025).
“And” between values parts separate entries of the source, which are not always exact repeats. Equal entries are not always repeated.

Test system: 845751-090-R-J2-PDC tumor spheroid viability
Experiment: Anticancer human tumor 845751-090-R-J2-PDC patient-derived head and neck squamous carcinoma cell line growth inhibition [IpAb]
Details: spheroids with HUVEC and MSC; for viability, T/C: stronger effect = lower value
Procedure, shortened: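 Combinations with ipatasertib or abemaciclib were tested on tumour spheroids holding HUVEC (25%) and MSC (15%) alongside 60% malignant cells. Top concentration was at or near clinical Cmax (10 microM if undefined), descending in half-log steps.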

[1] = curve of first compound, second compound 0.01 µM
[2] = curve of first compound, second compound 0.0316 µM
[3] = curve of first compound, second compound 0.1 µM
[4] = curve of first compound, second compound 0.316 µM
[5] = curve of first compound, second compound 1 µM
[6] = second compound 0.01 µM, first compound 0.0316 µM
[7] = second compound 0.01 µM, first compound 0.1 µM
[8] = second compound 0.01 µM, first compound 0.316 µM
[9] = second compound 0.01 µM, first compound 1 µM
[10] = second compound 0.01 µM, first compound 3.16 µM
[11] = second compound 0.01 µM, first compound 10 µM
[12] = second compound 0.0316 µM, first compound 0.0316 µM
[13] = second compound 0.0316 µM, first compound 0.1 µM
[14] = second compound 0.0316 µM, first compound 0.316 µM
[15] = second compound 0.0316 µM, first compound 1 µM
[16] = second compound 0.0316 µM, first compound 3.16 µM
[17] = second compound 0.0316 µM, first compound 10 µM
[18] = second compound 0.1 µM, first compound 0.0316 µM
[19] = second compound 0.1 µM, first compound 0.1 µM
[20] = second compound 0.1 µM, first compound 0.316 µM
[21] = second compound 0.1 µM, first compound 1 µM
[22] = second compound 0.1 µM, first compound 3.16 µM
[23] = second compound 0.1 µM, first compound 10 µM
[24] = second compound 0.316 µM, first compound 0.0316 µM
[25] = second compound 0.316 µM, first compound 0.1 µM
[26] = second compound 0.316 µM, first compound 0.316 µM
[27] = second compound 0.316 µM, first compound 1 µM
[28] = second compound 0.316 µM, first compound 3.16 µM
[29] = second compound 0.316 µM, first compound 10 µM
[30] = second compound 1 µM, first compound 0.0316 µM
[31] = second compound 1 µM, first compound 0.1 µM
[32] = second compound 1 µM, first compound 0.316 µM
[33] = second compound 1 µM, first compound 1 µM
[34] = second compound 1 µM, first compound 3.16 µM
[35] = second compound 1 µM, first compound 10 µM
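Note: spheroids exposed to compounds for 7 days before readout.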
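Throughout, for viability, T/C: CTG3D luminescence normalised so that 100% = DMSO vehicle control.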

Compound `CCCS(=O)(=O)Nc1ccc(F)c(C(=O)c2c[nH]c3ncc(-c4ccc(Cl)cc4)cc23)c1F` + CCN1CCN(Cc2ccc(Nc3ncc(F)c(-c4cc(F)c5nc(C)n(C(C)C)c5c4)n3)nc2)CC1 has an IC50 [1] of 590 nM, an IC50 [2] of 681 nM and an IC50 [3] of 454 nM. For the same compound, the IC50 [4] was 582 nM, the IC50 [5] was 907 nM and the viability, T/C [6] was 95%. It also gave a viability, T/C [7] of 70.8%, a viability, T/C [8] of 52.4% and a viability, T/C [9] of 50.7%. It also gave a viability, T/C [10] of 35%, a viability, T/C [11] of 24.7% and a viability, T/C [12] of 86.4%. The viability, T/C [13] was 64.9%, the viability, T/C [14] was 66.6% and the viability, T/C [15] was 43.4%. For the same compound, the viability, T/C [16] was 30.9%, the viability, T/C [17] was 20.5% and the viability, T/C [18] was 65%. The viability, T/C [19] was 60.2%, the viability, T/C [20] was 58.8% and the viability, T/C [21] was 30.9%. It also gave a viability, T/C [22] of 23.2%, a viability, T/C [23] of 29.5% and a viability, T/C [24] of 74.2%. For the same compound, the viability, T/C [25] was 65.7%, the viability, T/C [26] was 63.4% and the viability, T/C [27] was 38.6%. It also gave a viability, T/C [28] of 28.6%, a viability, T/C [29] of 23% and a viability, T/C [30] of 81.5%. It also gave a viability, T/C [31] of 81.2%, a viability, T/C [32] of 70.3% and a viability, T/C [33] of 47.4%. For the same compound, the viability, T/C [34] was 38.1% and the viability, T/C [35] was 32.1%.
For `Cc1nc(NC(=O)N2CCCC2C(N)=O)sc1-c1ccnc(C(C)(C)C(F)(F)F)c1` (stereo unspecified), the viability, T/C (compound 0.0316 µM) was 79.1% and 55.6%, the viability, T/C (compound 0.1 µM) was 54.8% and 65.7% and the viability, T/C (compound 0.316 µM) was 36.8% and 46.5%. For the same compound, the viability, T/C (compound 1 µM) was 25.4% and 25%, the viability, T/C (compound 3.16 µM) was 17.9% and 18.6% and the viability, T/C (compound 10 µM) was 10.7% and 14.8%. For the same compound, the IC50 (curve of compound) was 138 nM and 262 nM.
For `Cc1nc(NC(=O)N2CCCC2C(N)=O)sc1-c1ccnc(C(C)(C)C(F)(F)F)c1` (stereo unspecified) + CCN1CCN(Cc2ccc(Nc3ncc(F)c(-c4cc(F)c5nc(C)n(C(C)C)c5c4)n3)nc2)CC1, the IC50 [1] was 101 nM, the IC50 [2] was 76.4 nM and the IC50 [3] was < 31.6 nM. For the same compound, the IC50 [4] was 36.2 nM, the IC50 [5] was 114 nM and the viability, T/C [6] was 69.5%. The viability, T/C [7] was 46.2%, the viability, T/C [8] was 37.3% and the viability, T/C [9] was 28.9%. For the same compound, the viability, T/C [10] was 12.9%, the viability, T/C [11] was 11.6% and the viability, T/C [12] was 62.1%. It also gave a viability, T/C [13] of 41.9%, a viability, T/C [14] of 40.9% and a viability, T/C [15] of 22.5%. For the same compound, the viability, T/C [16] was 15.5%, the viability, T/C [17] was 10.9% and the viability, T/C [18] was 41.8%. The viability, T/C [19] was 43.6%, the viability, T/C [20] was 27.4% and the viability, T/C [21] was 20.8%. For the same compound, the viability, T/C [22] was 14.7%, the viability, T/C [23] was 10.1% and the viability, T/C [24] was 51.2%. For the same compound, the viability, T/C [25] was 39.8%, the viability, T/C [26] was 25.9% and the viability, T/C [27] was 20.9%. For the same compound, the viability, T/C [28] was 17.9%, the viability, T/C [29] was 12.4% and the viability, T/C [30] was 54.9%. For the same compound, the viability, T/C [31] was 50.5%, the viability, T/C [32] was 42.4% and the viability, T/C [33] was 24.1%. It also gave a viability, T/C [34] of 18.7% and a viability, T/C [35] of 11.3%.
`Cn1ncc(Cl)c1-c1cc(C(=O)NC(CN)Cc2cccc(F)c2)sc1Cl` (stereo unspecified) + CCN1CCN(Cc2ccc(Nc3ncc(F)c(-c4cc(F)c5nc(C)n(C(C)C)c5c4)n3)nc2)CC1 gave an IC50 [1] of 178 nM, an IC50 [2] of 94.7 nM and an IC50 [3] of 160 nM. It also gave an IC50 [4] of 170 nM, an IC50 [5] of 401 nM and a viability, T/C [6] of 97.8%. The viability, T/C [7] was 58%, the viability, T/C [8] was 34% and the viability, T/C [9] was 32.3%. The viability, T/C [10] was 8.93%, the viability, T/C [11] was 0.28% and the viability, T/C [12] was 90.9%. The viability, T/C [13] was 38.1%, the viability, T/C [14] was 30.7% and the viability, T/C [15] was 28.1%. The viability, T/C [16] was 8.85%, the viability, T/C [17] was 0.59% and the viability, T/C [18] was 86.3%. The viability, T/C [19] was 56.7%, the viability, T/C [20] was 34.1% and the viability, T/C [21] was 29.2%. It also gave a viability, T/C [22] of 6.19%, a viability, T/C [23] of 0.25% and a viability, T/C [24] of 63.4%. For the same compound, the viability, T/C [25] was 72%, the viability, T/C [26] was 26.7% and the viability, T/C [27] was 25.8%. For the same compound, the viability, T/C [28] was 4.76%, the viability, T/C [29] was 0.45% and the viability, T/C [30] was 64.3%. For the same compound, the viability, T/C [31] was 75.1%, the viability, T/C [32] was 53.1% and the viability, T/C [33] was 27.4%. It also gave a viability, T/C [34] of 3.89% and a viability, T/C [35] of 0.61%.
For `CC(C)n1nc(-c2ccc3oc(N)nc3c2)c2c(N)ncnc21`, the viability, T/C (compound 0.000316 µM) was 108% and 77.2%, the viability, T/C (compound 0.001 µM) was 81.4% and 72.8% and the viability, T/C (compound 0.00316 µM) was 58.9% and 50.4%. The viability, T/C (compound 0.01 µM) was 57.2% and 53.4%, the viability, T/C (compound 0.0316 µM) was 49.8% and 32.9% and the viability, T/C (compound 0.1 µM) was 26% and 20.3%. The IC50 (curve of compound) was 16.2 nM and 7.32 nM.
In the case of `CCCS(=O)(=O)Nc1ccc(F)c(C(=O)c2c[nH]c3ncc(-c4ccc(Cl)cc4)cc23)c1F`, the viability, T/C (compound 0.0316 µM) is reported as 134% and 78.5%, the viability, T/C (compound 0.1 µM) is reported as 120% and 76.5% and the viability, T/C (compound 0.316 µM) is reported as 111% and 63%. The viability, T/C (compound 1 µM) was 84.5% and 45.3%, the viability, T/C (compound 3.16 µM) was 46.7% and 33.6% and the viability, T/C (compound 10 µM) was 50.4% and 29.4%. For the same compound, the IC50 (curve of compound) was 5550 nM and 737 nM.
